Assays:
p38 α2 = target: T1, p38 α2 (Homo sapiens, UniProt Q16539); assay: p38 kinase in vitro assay; type: biochemical; conditions: in words
T1 construct: His; made in house; host or cells: E. coli
Procedure: Purified and His-tagged p38 α2 (expressed in E. Coli) was activated in vitro by MMK-6 to a high specific activity. Using a microtiter format, all reactions were conducted in 100 μL volumes with reagents diluted to yield 0.05 μg/well of activated p38 α2 and 10 μg/well of myelin basic protein in assay buffer (25 mM HEPES 7.4, 20 mM MgCl2, 150 mM NaCl). Test compounds (5 μL of a 10% DMSO solution in water) were prepared and diluted into the assay to cover a final concentration range from 5 nM to 2.5 μM. The kinase assay was initiated by addition of 25 μL of an ATP cocktail to give a final concentration of 10 μM cold ATP and 0.2 μCi [gamma-^33P] ATP per well (200-400 dpm/pmol of ATP). The plate was incubated at 32° C. for 35 min., and the reaction quenched with 7 μL of a 1 N aq HCl solution. The samples were harvested onto a P30 Filtermat (Wallac, Inc.) using a TomTec 1295 Harvester (Wallac, Inc.), and counted in a LKB 1205 Betaplate Liquid Scintillation Counter (Wallac, Inc.). Negative controls included substrate plus ATP alone. SW1353 cellular assay: SW1353 cells (human chondro-sarcoma) are seeded (1000 cells/100 μL DMEM 10% FCS/well) into 96-well plates and incubated overnight. […] Cultures are incubated for 48 h at 37° C., then supernatant IL-6 values are determined by ELISA.

Flk-1 (murine VEGFR-2) = target: T2, Flk-1 (murine VEGFR-2) (Mus musculus, UniProt P35918); assay: Flk-1 (murine VEGFR-2) biochemical assay (TR-FRET); conditions: in words
T2 construct: 7 nM Flk-1 (kinase domain)
Procedure: This assay was performed in 96-well opaque plates (Costar 3915) in the TR-FRET format. Reaction conditions are as follows: 10 μM ATP, 25 nM poly GT-biotin, 2 nM Eu-labelled phospho-Tyr Ab, 10 nM APC, 7 nM Flk-1 (kinase domain), 1% DMSO, 50 mM HEPES pH 7.5, 10 mM MgCl2, 0.1 mM EDTA, 0.015% BRIJ, 0.1 mg/mL BSA, 0.1% mercapto-ethanol). Reaction is initiated upon addition of enzyme. Final reaction volume in each well is 100 μL. Plates are read at both 615 and 665 nM on a Perkin Elmer Victor V Multilabel counter at about 1.5-2.0 hours after reaction initiation. Signal is calculated as a ratio: (665 nm/615 nm)*10000 for each well.
For IC50 generation for both PDGFR and Flk-1, compounds were added prior to the enzyme initiation. A 50-fold stock plate was made with compounds serially diluted 1:3 in a 50% DMSO/50% dH2O solution. […] The data were expressed as percent inhibition: % inhibition=100−((Signal with inhibitor-background)/(Signal without inhibitor-background))*100

[1] = tested on: MDA MB-231 human breast carcinoma cells; assay: MDA-MB231 proliferation assay; type: cell-based
Procedure: Human breast carcinoma cells (MDA MB-231, NCI) were cultured in standard growth medium (DMEM) supplemented with 10% heat-inactivated FBS at 37° C. in 5% CO2 (vol/vol) in a humidified incubator. Cells were plated at a density of 3000 cells per well in 90 μL growth medium in a 96 well culture dish. In order to determine T0h CTG values, 24 hours after plating, 100 μL of CellTiter-Glo Luminescent Reagent (Promega) was added to each well and incubated at room temperature for 30 minutes. Luminescence was recorded on a Wallac Victor II instrument. […]
Test compounds are dissolved in 100% DMSO to prepare 10 mM stocks. […] The cells with and without individual test compounds were incubated for 72 hours at which time ATP dependent luminescence was measured, as described previously, to yield T72h values. Optionally, the IC50 values can be determined with a least squares analysis program using compound concentration versus percent inhibition.
% Inhibition=[1−(T72h test−T0h)/(T72h ctrl−T0h)]×100, where • T72h test=ATP dependent luminescence at 72 hours in the presence of test compound • T72h ctrl=ATP dependent luminescence at 72 hours in the absence of test compound • T0h=ATP dependent luminescence at Time Zero

[2] = tested on: PDGFR-beta phosphorylation in aortic smooth muscle cells; assay: pPDGFR-beta sandwich ELISA in AoSMC cells; type: cell-based; conditions: PDGF-BB stimulated
Procedure: 100K P3-P6 Aortic SMC were plated in each well of 12-well cluster in 1000 μL volume/well of SGM-2 using standard cell culture techniques. Next day, cells were rinsed with 1000 μL D-PBS once, then serum starved in 500 μL SBM (smooth muscle cell basal media) with 0.1% BSA overnight. Compounds were diluted at a dose range from (10 μM to 1 nM in 10-fold dilution steps in DMSO. Final DMSO concentration 0.1%). Remove old media by inversion into the sink quickly then add 100 μL of each dilution to corresponding well of cells for 1 h at 37° C. Cells were then stimulated with 10 ng/mL PDGF-BB ligand for 7 min at 37° C. The media is decanted and 150 μL of isotonic lysis buffer with protease inhibitor tablet (Complete; EDTA-free) and 0.2 mM Na vanadate is added. Cells are lysed for 15 min at 4° C. on shaker in cold room. […]
Table 2 illustrates the results of two cellular assays for raf kinase activity, which are (i) inhibition of pERK in MDA-MB231 cells, a mechanistic readout of raf kinase activity, and (ii) a proliferation assay of MDA-MB231 cells, a functional assay of raf kinase activity. In addition, Table 2 illustrates the results of PDGFR driven phosphorylation of PDGFR-beta in aortic smooth muscle cells, which is a mechanistic readout of PDGFR kinase inhibition.

[3] = Metabolite profile, incubation of [14C]regorafenib with liver microsomes (rat); type: in vitro ADME, Wistar rat; conditions: [14C]regorafenib 20 μM, liver microsomes 0.5 mg/mL, 60 min
Procedure: N-oxide (M-2), hydroxymethyl (M-3), de-methylated (M-4) and N-oxide-demethylated (M-5) metabolites of the fluoro-substituted diaryl urea of Formula (I) are shown below. They were identified as metabolites of regorafenib in vitro upon incubation with liver enzymes of various mammalian species (man, dog, rat, mouse). Studies reveal that its metabolites show high protein binding in man and animal species (data not shown). [table]

[4] = Pharmacokinetics in patients after 160 mg regorafenib co-precipitate tablet; conditions: analyte in plasma, 160 mg regorafenib co-precipitate tablet daily, day 21, n = 9, geometric mean

T1 sequence (Q16539 whole entry): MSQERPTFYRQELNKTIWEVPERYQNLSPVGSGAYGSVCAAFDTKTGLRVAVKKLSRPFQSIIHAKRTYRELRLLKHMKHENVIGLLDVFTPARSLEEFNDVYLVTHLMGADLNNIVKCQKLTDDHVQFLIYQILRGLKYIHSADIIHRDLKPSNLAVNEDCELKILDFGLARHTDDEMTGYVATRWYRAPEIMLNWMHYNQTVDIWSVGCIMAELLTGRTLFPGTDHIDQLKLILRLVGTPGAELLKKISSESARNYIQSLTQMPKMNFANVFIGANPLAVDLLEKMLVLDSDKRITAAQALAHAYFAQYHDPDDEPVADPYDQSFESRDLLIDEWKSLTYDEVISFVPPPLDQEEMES
T2 sequence (P35918 832-1160 limits assumed): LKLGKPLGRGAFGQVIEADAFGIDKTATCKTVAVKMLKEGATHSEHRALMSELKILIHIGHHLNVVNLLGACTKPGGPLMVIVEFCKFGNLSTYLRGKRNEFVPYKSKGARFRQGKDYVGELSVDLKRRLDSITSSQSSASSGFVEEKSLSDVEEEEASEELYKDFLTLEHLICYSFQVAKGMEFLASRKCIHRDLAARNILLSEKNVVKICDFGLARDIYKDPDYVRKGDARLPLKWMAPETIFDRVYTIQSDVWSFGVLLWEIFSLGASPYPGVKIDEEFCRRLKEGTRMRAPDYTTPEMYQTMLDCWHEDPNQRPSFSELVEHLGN

## CNC(=O)c1cc(Oc2ccc(NC(=O)Nc3ccc(Cl)c(C(F)(F)F)c3)c(F)c2)ccn1 [Example 1, 4{4-[3-(4-chloro-3-trifluoromethylphenyl)-ureido]-3-fluorophenoxy}-pyridine-2-carboxylic acid methylamide]
p38 α2
  inhibition of p38 kinase: significant inhibition
Flk-1 (murine VEGFR-2)
  inhibition of VEGFR2 kinase: significant inhibition
[1]; Homo sapiens, MDA-MB-231 cells, 72 hours
  IC50: 600 nM
[1]; in words
  inhibition of proliferation: significant inhibition
[2]
  IC50: 43.6 nM
[3]
  % of radioactivity, Wistar rat: 75.7%
[4]
  AUC Day 21: 61500 ng·h/mL
  Cmax Day 21: 4170 ng/mL

Source: patent publication US20130183268A1, “DRUG COMBINATIONS WITH FLUORO-SUBSTITUTED OMEGA-CARBOXYARYL DIPHENYL UREA FOR THE TREATMENT AND PREVENTION OF DISEASES AND CONDITIONS” (BAYER HEALTHCARE LLC, priority 2010, published 2013)
